What follows are compounds tested on HEK293Tmtkeima cells (assay: Functional test of mitophagy inducer (mtKeima imaging, with or without CCCP-induced mitochondrial damage)). Settings: HEK293Tmtkeima cells, 5 uM or 10 uM CCCP to induce mitochondrial damage; number of cells in which damaged mitophagy occurs/number of all cells.
Assay type: cell-based, Human
Description: Group 1: Human embryonic kidney transformed cells HEK293Tmtkeima cells were treated with 0 μM, 1.25 μM, 2.5 μM, 5 μM and 10 μM CCCP respectively, and seeded in a 96-well black ELISA PLATE at 1.5*10^5 cells/ml, 100 μL per well. Compound I-2 was added after 25 hours, and 3 replicates were set. At 37° C., under 5% CO2 incubation conditions, photographs were taken every few hours with biotek cytation 5 for a total of 20 hours, with the bright field as the focusing channel, and 9 images were taken per hole, and the images were processed using the instrument software.
Group 2: Human embryonic kidney transformed cells HEK293Tmtkeima cells were seeded in a 96-well black ELISA PLATE at […], 100 μL per well; compounds I-1˜I-44 and UMI-77 were added after 25 hours, set up 3 replicates; under 37° C., 5% CO2 culture conditions, use biotek every few hours Cytation 5 was used to take photos, a total of 20 hours of shooting. In another group of cells under the same conditions, human embryonic kidney-transformed cells HEK293Tmtkeima cells were seeded in a 96-well black enzyme plate at 1.5*10^5 cells/ml, 100 μl per well; after 24 hours, 5 uM or 10 uM CCCP (Carbonyl cyanide) was first added 3-chlorophenylhydrazone) to induce mitochondrial damage, then add I-1˜I-44, UMI-77 1 hour later, set up 3 repetitions; under 37° C., 5% CO2 culture conditions, pictures were taken every few hours with biotek cytation 5, photographs were taken for 20 hours. Another group of human embryonic kidney transformed cells HEK293Tmtkeima cells was seeded at 1.5*10^5 cells/ml in 96-well black ELISA PLATE at 100 μl per well under the same conditions, 24 hours later 5 uM or 10 uM CCCP (Carbonyl cyanide 3-chlorophenylhydrazone) was first added to induce mitochondrial damage, after 1 hour then add I-1 to I-44, UMI-77 and set up 3 replicates. At 37° C., under 5% CO2 incubation conditions, pictures were taken every few hours with biotek cytation 5, photographs were taken for 20 hours, with the bright field as the focusing channel for both groups, and 9 images were taken per hole, and the images were processed using the instrument software.
With O=C(O)C[S+]([O-])c1cc(NS(=O)(=O)c2ccc(N3CCCC3)cc2)c2ccccc2c1O (stereo not shown) [Compound I-18-1] the “The ability of selection to induce autophagy in damaged mitochondria” value (from here on “The ability of selection”) was “+ (weak ability to selectively induce autophagy in damaged mitochondria (number of cells in which damaged mitophagy occurs/number of all cells in the range of 0.1 to 0.2))”.
O=C(O)C[S+]([O-])c1cc(NS(=O)(=O)c2ccc([N+](=O)[O-])cc2)c2ccccc2c1O (stereo not shown) [Compound I-22-1] was tested, and the “The ability of selection” value was “+ (weak ability to selectively induce autophagy in damaged mitochondria (number of cells in which damaged mitophagy occurs/number of all cells in the range of 0.1 to 0.2))”.
With O=C(O)C[S+]([O-])c1cc(NC(=O)c2cccc(Br)c2)c2ccccc2c1O (stereo not shown) [Compound I-35-1] the “The ability of selection” value was “+ (weak ability to selectively induce autophagy in damaged mitochondria (number of cells in which damaged mitophagy occurs/number of all cells in the range of 0.1 to 0.2))”.
In the case of COc1ccc(S(=O)(=O)Nc2cc([S+]([O-])CC(=O)O)c(O)c3ccccc23)cc1 (stereo not shown) [Compound I-15-1], the “The ability of selection” value is reported as “+ (weak ability to selectively induce autophagy in damaged mitochondria (number of cells in which damaged mitophagy occurs/number of all cells in the range of 0.1 to 0.2))”.
In the case of O=C(O)C[S+]([O-])c1cc(N(C2COC2)S(=O)(=O)c2ccc(Br)cc2)c2ccccc2c1O (stereo not shown) [Compound I-4], the “The ability of selection” value is reported as “+ (weak ability to selectively induce autophagy in damaged mitochondria (number of cells in which damaged mitophagy occurs/number of all cells in the range of 0.1 to 0.2))”.
With O=C(O)C[S+]([O-])c1cc(N2CCCN=S2(=O)c2ccc(Br)cc2)c2ccccc2c1O (stereo not shown) [Compound I-28] the “The ability of selection” value was “+ (weak ability to selectively induce autophagy in damaged mitochondria (number of cells in which damaged mitophagy occurs/number of all cells in the range of 0.1 to 0.2))”.
With O=C(O)C[S+]([O-])c1cc(NS(=O)(=O)c2ccc(C(F)(F)F)cc2)c2ccccc2c1O (stereo not shown) [Compound I-14-1] the “The ability of selection” value was “++ (moderate ability to selectively induce autophagy in damaged mitochondria (number of cells in which damaged mitophagy occurs/number of all cells in the range of 0.2 to 0.3))”.
O=C(O)C[S+]([O-])c1cc(NS(=O)(=O)c2cccs2)c2ccccc2c1O (stereo not shown) [Compound I-13-1] was tested, and the “The ability of selection” value was “+++ (strong ability to selectively induce autophagy in damaged mitochondria (number of cells in which damaged mitophagy occurs/number of all cells >0.30))”.
With O=C(O)CS(=O)(=O)c1cc(NS(=O)(=O)c2cccs2)c2ccccc2c1O [Compound I-13-2] the “The ability of selection” value was “++ (moderate ability to selectively induce autophagy in damaged mitochondria (number of cells in which damaged mitophagy occurs/number of all cells in the range of 0.2 to 0.3))”.
NC(=S)C[S+]([O-])c1cc(NS(=O)(=O)c2ccc(Br)cc2)c2ccccc2c1O (stereo not shown) [Compound I-6] was tested, and the “The ability of selection” value was “+ (weak ability to selectively induce autophagy in damaged mitochondria (number of cells in which damaged mitophagy occurs/number of all cells in the range of 0.1 to 0.2))”.
For O=C(O)C[S+]([O-])c1cc(NS(=O)(=O)c2ccc(Br)cc2)c2cc(Br)ccc2c1O (stereo not shown) [Compound I-29], the “The ability of selection” value was “+++ (strong ability to selectively induce autophagy in damaged mitochondria (number of cells in which damaged mitophagy occurs/number of all cells >0.30))”.
In the case of O=C(O)C[S+]([O-])c1cc(NS(=O)(=O)c2ccc(Cl)c(Cl)c2)c2ccccc2c1O (stereo not shown) [Compound I-17-1], the “The ability of selection” value is reported as “+++ (strong ability to selectively induce autophagy in damaged mitochondria (number of cells in which damaged mitophagy occurs/number of all cells >0.30))”.
COP(=O)(Nc1cc([S+]([O-])CC(=O)O)c(O)c2ccccc12)c1ccc(Br)cc1 (stereo not shown) [Compound I-33] was tested, and the “The ability of selection” value was “++ (moderate ability to selectively induce autophagy in damaged mitochondria (number of cells in which damaged mitophagy occurs/number of all cells in the range of 0.2 to 0.3))”.

Source: US12151999B2, “Small molecule compounds having naphthylamine structure and application thereof” (Hangzhou PhecdaMed Co., Ltd., priority 2021, dated 2024)
